The record followed here is patent US20030088061A1, “Materials and methods to modulate ligand binding/enzymatic activity of alpha/beta proteins containing an allosteric regulatory site” (priority 2000, published 2003).

α4β1, sequence (P13612 34-1032): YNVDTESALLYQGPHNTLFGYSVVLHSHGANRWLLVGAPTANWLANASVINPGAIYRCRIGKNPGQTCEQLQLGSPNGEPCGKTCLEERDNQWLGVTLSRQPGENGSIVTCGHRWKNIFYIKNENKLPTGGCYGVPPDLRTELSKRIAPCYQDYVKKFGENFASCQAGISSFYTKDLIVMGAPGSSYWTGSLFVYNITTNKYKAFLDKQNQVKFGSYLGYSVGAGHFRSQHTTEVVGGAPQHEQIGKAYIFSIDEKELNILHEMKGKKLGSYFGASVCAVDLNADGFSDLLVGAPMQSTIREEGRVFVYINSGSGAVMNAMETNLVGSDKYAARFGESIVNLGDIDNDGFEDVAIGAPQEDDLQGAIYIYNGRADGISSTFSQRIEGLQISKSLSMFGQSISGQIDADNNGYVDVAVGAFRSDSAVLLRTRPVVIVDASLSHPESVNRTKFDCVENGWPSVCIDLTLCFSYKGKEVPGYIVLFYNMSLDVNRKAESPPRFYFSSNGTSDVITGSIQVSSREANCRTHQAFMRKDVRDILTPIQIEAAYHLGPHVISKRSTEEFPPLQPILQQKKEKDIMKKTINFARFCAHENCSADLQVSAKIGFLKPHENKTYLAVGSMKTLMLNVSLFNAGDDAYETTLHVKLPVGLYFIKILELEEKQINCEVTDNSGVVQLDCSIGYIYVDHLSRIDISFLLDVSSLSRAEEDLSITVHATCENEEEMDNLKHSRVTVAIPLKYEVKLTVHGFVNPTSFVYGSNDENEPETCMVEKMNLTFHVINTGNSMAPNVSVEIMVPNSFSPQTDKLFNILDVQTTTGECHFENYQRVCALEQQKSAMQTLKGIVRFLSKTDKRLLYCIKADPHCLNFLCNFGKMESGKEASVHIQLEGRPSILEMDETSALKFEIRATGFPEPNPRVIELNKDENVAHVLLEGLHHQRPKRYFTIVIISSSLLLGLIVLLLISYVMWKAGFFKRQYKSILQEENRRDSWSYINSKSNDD
α4β1, sequence (P05556 21-798): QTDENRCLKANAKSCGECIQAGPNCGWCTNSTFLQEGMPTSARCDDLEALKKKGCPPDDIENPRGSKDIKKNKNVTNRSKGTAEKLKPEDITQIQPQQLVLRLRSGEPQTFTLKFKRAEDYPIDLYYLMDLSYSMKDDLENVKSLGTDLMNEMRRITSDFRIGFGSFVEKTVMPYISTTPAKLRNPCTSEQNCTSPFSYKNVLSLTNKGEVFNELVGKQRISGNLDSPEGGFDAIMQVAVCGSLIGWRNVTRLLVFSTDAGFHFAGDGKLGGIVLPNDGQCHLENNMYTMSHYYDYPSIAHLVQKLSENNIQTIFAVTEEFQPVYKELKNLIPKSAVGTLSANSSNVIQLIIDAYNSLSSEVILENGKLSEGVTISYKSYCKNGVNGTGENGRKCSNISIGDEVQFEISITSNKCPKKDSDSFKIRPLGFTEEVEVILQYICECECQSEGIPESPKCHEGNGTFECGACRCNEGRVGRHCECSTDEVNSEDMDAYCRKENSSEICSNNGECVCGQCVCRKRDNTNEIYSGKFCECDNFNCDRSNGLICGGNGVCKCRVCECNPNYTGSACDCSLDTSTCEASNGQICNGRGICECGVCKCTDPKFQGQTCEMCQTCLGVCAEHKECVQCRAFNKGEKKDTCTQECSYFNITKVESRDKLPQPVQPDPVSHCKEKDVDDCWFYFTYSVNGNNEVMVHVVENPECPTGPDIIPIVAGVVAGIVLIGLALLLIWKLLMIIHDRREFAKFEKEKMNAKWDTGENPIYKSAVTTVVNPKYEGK

The target of one data set is T1, α2β1 (Homo sapiens, UniProt P05556+P17301).
T1 construct: endogenous in cells; host or cells: Jurkat cells
T1 sequence (P17301 30-1181): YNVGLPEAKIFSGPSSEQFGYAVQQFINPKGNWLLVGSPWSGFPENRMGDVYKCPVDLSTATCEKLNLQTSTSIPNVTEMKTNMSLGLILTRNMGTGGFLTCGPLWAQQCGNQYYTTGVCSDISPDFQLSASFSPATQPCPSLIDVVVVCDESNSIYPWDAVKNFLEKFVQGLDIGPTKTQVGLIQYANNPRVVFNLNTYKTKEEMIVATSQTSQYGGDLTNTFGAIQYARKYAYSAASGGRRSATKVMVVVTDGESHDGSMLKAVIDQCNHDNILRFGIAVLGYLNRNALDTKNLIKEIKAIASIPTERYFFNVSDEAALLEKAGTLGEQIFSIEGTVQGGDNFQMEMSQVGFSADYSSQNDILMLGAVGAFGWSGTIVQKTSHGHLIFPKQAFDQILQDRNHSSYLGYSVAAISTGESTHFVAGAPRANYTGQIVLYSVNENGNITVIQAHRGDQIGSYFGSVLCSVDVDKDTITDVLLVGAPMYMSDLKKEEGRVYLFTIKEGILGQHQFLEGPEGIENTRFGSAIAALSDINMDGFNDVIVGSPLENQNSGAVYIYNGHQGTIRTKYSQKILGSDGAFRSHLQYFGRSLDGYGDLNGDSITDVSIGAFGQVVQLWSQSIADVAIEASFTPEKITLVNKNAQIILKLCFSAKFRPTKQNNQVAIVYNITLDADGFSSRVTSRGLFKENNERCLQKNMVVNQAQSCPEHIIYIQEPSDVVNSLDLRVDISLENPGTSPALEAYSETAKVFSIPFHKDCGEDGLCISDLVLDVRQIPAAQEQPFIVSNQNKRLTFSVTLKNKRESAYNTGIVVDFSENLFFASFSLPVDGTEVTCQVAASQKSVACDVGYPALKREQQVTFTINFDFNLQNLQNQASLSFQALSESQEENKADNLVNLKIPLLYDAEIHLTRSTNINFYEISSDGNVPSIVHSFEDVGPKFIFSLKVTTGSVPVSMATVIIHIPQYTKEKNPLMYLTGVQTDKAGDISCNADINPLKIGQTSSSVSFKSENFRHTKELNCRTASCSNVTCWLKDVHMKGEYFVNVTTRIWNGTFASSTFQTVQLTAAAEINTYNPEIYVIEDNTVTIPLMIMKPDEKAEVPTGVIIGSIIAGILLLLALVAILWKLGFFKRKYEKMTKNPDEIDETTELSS
T1 sequence (P05556 21-798 partner): as the sequence (P05556 21-798) above
In words: Jurkat cell adhesion to rat type I collagen. Conditions: Jurkat cells, PMA. It counts as cell-based. As to the method:
Binding studies using monoclonal antibodies to each of these integrins has shown that Jurkat cell adhesion to rat type I collagen is mediated predominantly through interaction with alpha2. […] The assay was carried out using a modification of a procedure previously described [Sadhu, et al., supra]. Immunlon 4 plates (Dynex Technologies, Chantilly, Va.) were coated overnight at 4° C. with (i) 50 μl rat type I collagen (Sigma) (20 μg/ml in CMF-PBS), (ii) anti-beta1 monoclonal antibody 3S3 (5 μg/ml) in bicarbonate buffer, pH 9.6, (iii) or bicarbonate buffer alone. Plates were washed once with 200 μl/well D-PBS and blocked with 1% BSA (100 μl/well) in D-PBS for 1 hr at room temperature. […] Adherent cells were fixed by additional of 50 μl/well 14% glutaraldehyde in D-PBS and incubation at room temperature for 2 hr. The plates were washed with dH2O and stained with 50 μl/well 0.5% crystal violet in 10% ethanol for 5 min at room temperature. The plates were washed in several changes of dH2O, after which 70% ethanol was added. Adherent cells were quantitated by determining absorbance at 570 nm and 410 nm using a […] 250 microplate spectrophotometer system (Molecular Devices, Sunnyvale Calif.). The percentage of cell binding was determined using the formula below. [formula] Data was normalized using the formula: [formula] […] These 21 compounds were further analyzed for specificity and toxicity. […] The assay was carried out in a manner similar to the collagen adhesion assay described above except that […] with VCAM-1/Ig instead of collagen. Binding to VCAM-1 was dependent on surface expression of α4β1.
As to `CCN1CCCC1CNCc1ccccc1Sc1ccc2ccccc2c1.O=C(O)C(F)(F)F.O=C(O)C(F)(F)F` (stereo not drawn) [Cmpd AG], the EC50 was 7 µM.
`O=C(O)C(F)(F)F.O=C(O)C(F)(F)F.c1ccc(Sc2ccc3ccccc3c2)c(CNCCN2CCCC2)c1` [Cmpd AH] had an EC50 of 9 µM.
`O=C(/C=C/c1ccc(Sc2ccc3c(c2)OCCO3)c([N+](=O)[O-])c1)N1CCNCC1` [Cmpd B] showed an EC50 of 17 µM.
`CN(CCCNCc1ccccc1Sc1c(Cl)cccc1Cl)c1ccccc1.O=C(O)C(F)(F)F.O=C(O)C(F)(F)F` [Cmpd AD]: the EC50 came out at 2 µM.
`CC(C)c1ccc(Sc2ccc(N)cc2Cl)cc1` [Cmpd E] showed an EC50 of 16 µM.
Still for that read-out and setting: in the case of `O=C(/C=C/c1ccc(Sc2cccc(N3CCC(N4CCCC4)CC3)c2)c(Cl)c1Cl)NCCCN1CCCC1=O` [Cmpd J] it was 8 µM; in that of `CSc1ccc(Sc2ccccc2CNCCCN(C)c2ccccc2)cc1.O=C(O)C(F)(F)F.O=C(O)C(F)(F)F` [Cmpd AL], 8 µM; in that of `CC(=O)N1CCN(C(=O)C2CC2c2ccc(Sc3ccccc3C(C)C)c(Cl)c2Cl)CC1` (stereo not drawn) [Cmpd G], 16 µM.
For `Nc1ccc(SCc2ccc(Cl)cc2Cl)c(Cl)c1` [Cmpd X], the EC50 came out at 8 µM.
For `O=C(O)C(F)(F)F.O=C(O)C(F)(F)F.c1ccc(CN2CCC(NCc3ccccc3Sc3ccc4ccccc4c3)CC2)cc1` [Cmpd AF], the EC50 stood at 6 µM.
`FC(F)(F)Oc1ccc(Sc2ccccc2CNC2CCN(Cc3ccccc3)CC2)cc1.O=C(O)C(F)(F)F.O=C(O)C(F)(F)F` [Cmpd AJ]: the EC50 is 8 µM.
The same measure, in the same setting: the result for `CCN1CCN(c2cc(-c3ccc(Sc4ccccc4C(C)C)c(C(F)(F)F)c3)ccn2)CC1.O=C(O)C(F)(F)F.O=C(O)C(F)(F)F` [Cmpd AN] reads 17 µM.
Regarding `N[C@@H]1Cc2ccccc2O[C@@H]1c1ccc2c(c1)CCO2` [Cmpd Y], the EC50 was found to be 7 µM.
Molecule `CN1CCN(C(=O)/C=C/c2ccc(Sc3ccc(Cl)cc3Cl)c(Cl)c2)CC1` [Cmpd U] had an EC50 of 15 µM.
As to `Cl.O=C1CCCN1CCCNCc1ccc(Sc2cccc(Cl)c2Cl)c(Cl)c1` [Cmpd M], the EC50 worked out at 8 µM.
The molecule `CC(C)(C)c1ccc(Sc2ccccc2CNCCN2CCCC2)cc1.O=C(O)C(F)(F)F.O=C(O)C(F)(F)F` [Cmpd AB] had an EC50 of 13 µM.
On the same count and under the same terms, the result for `CN(C)CCCNCc1ccccc1Sc1ccc2ccccc2c1.O=C(O)C(F)(F)F.O=C(O)C(F)(F)F` [Cmpd AI] reads 6 µM; that for `O=C(/C=C/c1ccc(Sc2ccc(Cl)cc2Cl)c([N+](=O)[O-])c1)N1CCNCC1` [Cmpd A], 14 µM.

The target in another data set is α4β1 (Homo sapiens, UniProt P05556+P13612). In words: Jurkat cell binding to immobilized VCAM-1/Ig. It counts as cell-based. Also noted: endogenous in cells; host or cells: Jurkat cells. Conditions: Jurkat cells; tested 0.15 μM to 20 μM; read-out: α7β1/VCAM EC50. As to the method:
These 21 compounds were further analyzed for specificity and toxicity. […] The assay was carried out in a manner similar to the collagen adhesion assay described above except that […] with VCAM-1/Ig instead of collagen. Binding to VCAM-1 was dependent on surface expression of α4β1.
For `CCN1CCCC1CNCc1ccccc1Sc1ccc2ccccc2c1.O=C(O)C(F)(F)F.O=C(O)C(F)(F)F` (stereo not drawn) [Cmpd AG], the EC50 was above 20 µM.
Take `O=C(O)C(F)(F)F.O=C(O)C(F)(F)F.c1ccc(Sc2ccc3ccccc3c2)c(CNCCN2CCCC2)c1` [Cmpd AH]: the EC50 was above 20 µM.
On to `O=C(/C=C/c1ccc(Sc2ccc3c(c2)OCCO3)c([N+](=O)[O-])c1)N1CCNCC1` [Cmpd B], for which the EC50 is above 20 µM.
Consider `CN(CCCNCc1ccccc1Sc1c(Cl)cccc1Cl)c1ccccc1.O=C(O)C(F)(F)F.O=C(O)C(F)(F)F` [Cmpd AD], for which the EC50 is above 20 µM.
Turning to `CC(C)c1ccc(Sc2ccc(N)cc2Cl)cc1` [Cmpd E], the EC50 was above 20 µM.
Consider `O=C(/C=C/c1ccc(Sc2cccc(N3CCC(N4CCCC4)CC3)c2)c(Cl)c1Cl)NCCCN1CCCC1=O` [Cmpd J], for which the EC50 is above 20 µM.
With `CSc1ccc(Sc2ccccc2CNCCCN(C)c2ccccc2)cc1.O=C(O)C(F)(F)F.O=C(O)C(F)(F)F` [Cmpd AL], the EC50 is above 20 µM.
`CC(=O)N1CCN(C(=O)C2CC2c2ccc(Sc3ccccc3C(C)C)c(Cl)c2Cl)CC1` (stereo not drawn) [Cmpd G]: the EC50 is above 20 µM.
With `Nc1ccc(SCc2ccc(Cl)cc2Cl)c(Cl)c1` [Cmpd X], the EC50 is above 20 µM.
As for `O=C(O)C(F)(F)F.O=C(O)C(F)(F)F.c1ccc(CN2CCC(NCc3ccccc3Sc3ccc4ccccc4c3)CC2)cc1` [Cmpd AF], the EC50 was above 20 µM.
For `FC(F)(F)Oc1ccc(Sc2ccccc2CNC2CCN(Cc3ccccc3)CC2)cc1.O=C(O)C(F)(F)F.O=C(O)C(F)(F)F` [Cmpd AJ], the EC50 is above 20 µM.
Take `CCN1CCN(c2cc(-c3ccc(Sc4ccccc4C(C)C)c(C(F)(F)F)c3)ccn2)CC1.O=C(O)C(F)(F)F.O=C(O)C(F)(F)F` [Cmpd AN]: the EC50 was above 20 µM.
Turning to `N[C@@H]1Cc2ccccc2O[C@@H]1c1ccc2c(c1)CCO2` [Cmpd Y], the EC50 was above 20 µM.
Take `CN1CCN(C(=O)/C=C/c2ccc(Sc3ccc(Cl)cc3Cl)c(Cl)c2)CC1` [Cmpd U]: the EC50 was above 20 µM.
Take `Cl.O=C1CCCN1CCCNCc1ccc(Sc2cccc(Cl)c2Cl)c(Cl)c1` [Cmpd M]: the EC50 is above 20 µM.
Regarding `CC(C)(C)c1ccc(Sc2ccccc2CNCCN2CCCC2)cc1.O=C(O)C(F)(F)F.O=C(O)C(F)(F)F` [Cmpd AB], the EC50 is above 20 µM.
Regarding `CN(C)CCCNCc1ccccc1Sc1ccc2ccccc2c1.O=C(O)C(F)(F)F.O=C(O)C(F)(F)F` [Cmpd AI], the EC50 was above 20 µM.
For `O=C(/C=C/c1ccc(Sc2ccc(Cl)cc2Cl)c([N+](=O)[O-])c1)N1CCNCC1` [Cmpd A], the EC50 was 17 µM.

Another data set has as its system Jurkat cells. The data set is described as follows: Jurkat cell toxicity (CellTiter 96 Aqueous One Solution). The class given is cell-based. The conditions noted are these: four hr or 24 hr incubation. How it is done:
For 21 compounds, toxicity of Jurkat cells was assessed following a four hr or 24 hr incubation. […] A two-fold serial dilution series of each compound was tested in a concentration range of 40 μM to 0.15 μM.
Consider `CCN1CCCC1CNCc1ccccc1Sc1ccc2ccccc2c1.O=C(O)C(F)(F)F.O=C(O)C(F)(F)F` (stereo not drawn) [Cmpd AG], for which the “TOXICITY LD50” value amounted to 35 µM.
On the same count and under the same terms, the result for `O=C(O)C(F)(F)F.O=C(O)C(F)(F)F.c1ccc(Sc2ccc3ccccc3c2)c(CNCCN2CCCC2)c1` [Cmpd AH] reads 38 µM; that for `O=C(/C=C/c1ccc(Sc2ccc3c(c2)OCCO3)c([N+](=O)[O-])c1)N1CCNCC1` [Cmpd B], above 40 µM; that for `CN(CCCNCc1ccccc1Sc1c(Cl)cccc1Cl)c1ccccc1.O=C(O)C(F)(F)F.O=C(O)C(F)(F)F` [Cmpd AD], 3 µM.
As to `CC(C)c1ccc(Sc2ccc(N)cc2Cl)cc1` [Cmpd E], the “TOXICITY LD50” value is above 40 µM.
For the molecule `O=C(/C=C/c1ccc(Sc2cccc(N3CCC(N4CCCC4)CC3)c2)c(Cl)c1Cl)NCCCN1CCCC1=O` [Cmpd J], the “TOXICITY LD50” value is above 40 µM.
As for `CSc1ccc(Sc2ccccc2CNCCCN(C)c2ccccc2)cc1.O=C(O)C(F)(F)F.O=C(O)C(F)(F)F` [Cmpd AL], the “TOXICITY LD50” value came out at 20 µM.
Consider `CC(=O)N1CCN(C(=O)C2CC2c2ccc(Sc3ccccc3C(C)C)c(Cl)c2Cl)CC1` (stereo not drawn) [Cmpd G], for which the “TOXICITY LD50” value was above 40 µM.
For `Nc1ccc(SCc2ccc(Cl)cc2Cl)c(Cl)c1` [Cmpd X], the “TOXICITY LD50” value is 30 µM.
For `O=C(O)C(F)(F)F.O=C(O)C(F)(F)F.c1ccc(CN2CCC(NCc3ccccc3Sc3ccc4ccccc4c3)CC2)cc1` [Cmpd AF], the “TOXICITY LD50” value came to 35 µM.
Take `FC(F)(F)Oc1ccc(Sc2ccccc2CNC2CCN(Cc3ccccc3)CC2)cc1.O=C(O)C(F)(F)F.O=C(O)C(F)(F)F` [Cmpd AJ]: the “TOXICITY LD50” value came to 38 µM.
Consider `CCN1CCN(c2cc(-c3ccc(Sc4ccccc4C(C)C)c(C(F)(F)F)c3)ccn2)CC1.O=C(O)C(F)(F)F.O=C(O)C(F)(F)F` [Cmpd AN], for which the “TOXICITY LD50” value was above 40 µM.
With `N[C@@H]1Cc2ccccc2O[C@@H]1c1ccc2c(c1)CCO2` [Cmpd Y], the “TOXICITY LD50” value amounted to 25 µM.
Consider `CN1CCN(C(=O)/C=C/c2ccc(Sc3ccc(Cl)cc3Cl)c(Cl)c2)CC1` [Cmpd U], for which the “TOXICITY LD50” value was above 40 µM.
In the case of `Cl.O=C1CCCN1CCCNCc1ccc(Sc2cccc(Cl)c2Cl)c(Cl)c1` [Cmpd M], the “TOXICITY LD50” value came out at 25 µM.
On the same count and under the same terms, in the case of `CC(C)(C)c1ccc(Sc2ccccc2CNCCN2CCCC2)cc1.O=C(O)C(F)(F)F.O=C(O)C(F)(F)F` [Cmpd AB] it was above 40 µM; in that of `CN(C)CCCNCc1ccccc1Sc1ccc2ccccc2c1.O=C(O)C(F)(F)F.O=C(O)C(F)(F)F` [Cmpd AI], 33 µM; in that of `O=C(/C=C/c1ccc(Sc2ccc(Cl)cc2Cl)c([N+](=O)[O-])c1)N1CCNCC1` [Cmpd A], above 40 µM.
